Columns and labels:
[1] = Metabolic stability in rat liver microsomes (RLM); conditions: for RLM, metabolized or not (R / NR): last time point 120 min; for RLM, % (half-life as % vs. the related nondeuterated compound): values in square brackets are within 10% (assay's accuracy), no deuteration effect; for metabolic stability in RLM, in words: deuterated vs. comparator
hrMAO-A = target: T1, hrMAO-A (Homo sapiens, UniProt P21397); test: Metabolic stability in the presence of hrMAO-A; format: in vitro ADME; conditions: for MAO, metabolized or not (R / NR): last time point 120 min
T1 construct: purchased XenoTech Lot #8213001
T1 sequence (P21397 1-527): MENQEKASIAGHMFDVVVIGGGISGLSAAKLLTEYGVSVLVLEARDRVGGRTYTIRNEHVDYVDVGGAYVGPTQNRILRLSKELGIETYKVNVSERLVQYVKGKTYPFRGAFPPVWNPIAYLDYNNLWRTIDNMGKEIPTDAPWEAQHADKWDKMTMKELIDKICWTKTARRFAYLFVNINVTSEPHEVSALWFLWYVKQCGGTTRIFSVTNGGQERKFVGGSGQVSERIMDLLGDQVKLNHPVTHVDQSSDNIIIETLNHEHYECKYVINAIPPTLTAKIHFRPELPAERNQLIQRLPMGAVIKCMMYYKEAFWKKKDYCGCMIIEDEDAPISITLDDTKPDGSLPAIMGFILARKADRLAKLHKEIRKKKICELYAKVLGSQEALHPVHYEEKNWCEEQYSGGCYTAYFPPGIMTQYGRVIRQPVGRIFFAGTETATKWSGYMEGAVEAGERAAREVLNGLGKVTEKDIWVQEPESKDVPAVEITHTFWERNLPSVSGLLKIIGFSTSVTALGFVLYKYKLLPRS
Description: The reaction mixture was prepared as described below. The co-dosed TAs were added into the reaction mixture at a final concentration of 1 microM each. The positive control, kynuramine (25 microM), was run simultaneously with the TAs in a separate reaction. The reaction mixture (without TAs or kynuramine) was equilibrated in a shaking water bath at 37° C. for 5 minutes. The reaction was initiated by the addition of the TAs or kynuramine, and the mixture was incubated in a shaking water bath at 37° C. Aliquots (100 microL) of the TA reaction mixture were withdrawn at 0, 5, 10, 20, 30, 60, and 120 minutes. Aliquots (100 microL) of the positive control reaction mixture were withdrawn at 0 and 30 minutes. TA and kynuramine samples were immediately combined with 100 microL of ice-cold 100% MeCN containing 0.1% formic acid and IS to terminate the reaction. The samples were then mixed and centrifuged to precipitate proteins. All TA samples were assayed by LC-HRAMS. The PARR (analyte to IS) at each time point was compared to the PARR at time 0 to determine the percent remaining at each time point. Reaction composition: hrMAO 0.02 mg/mL; Potassium Phosphate, pH 7.4 100 mM; Magnesium Chloride 5 mM; Test Articles (each) 1 microM.

[2] = oral; cited from earlier work
[3] = PK study in rats, cassette dosing, oral gavage or catheter; format: in vivo; conditions: rat, 5 mg/kg, % change vs. non-deuterated material; for Deuterium kinetic isotope effect (% change) F: bioavailability
Description: (§1) The key PK parameters (presented as a % change vs. non-deuterated materials) are presented in Table 3 to include half-life (T1/2), area under the curve (AUC), bioavailability (F) and blood-to-plasma ration (BPR). Pharmacokinetics of the deuterated tryptamines was studied in rats. In a typical experiment, run as a cassette dosing, two groups of 5 Wistar female rats (200-250 g) with surgically inserted jugular vein catheter (Charles River, Andover, Mass.) were fasted for 12 h and then administered 5 mg/kg of the deuterated and 5 mg/kg of the related non-deuterated analog, by oral gavage or via a catheter for each group. At time points 0, 15, 30, 60 min, and 2, 4, 8, and 24 h, the resulting plasma was analyzed for the parent molecule using LC/MS spectroscopy. Two separate groups of 5 animals were used for determining blood-to-plasma ratio (BPR). Each group was sacrificed at time points 15 and 30 min, respectively, and the concentration of the parent drug was determined in the […] and plasma by LC/MS spectroscopy.

[4] = Blood-to-plasma ratio (BPR), drug in brain and plasma of rats; format: in vivo; conditions: rat, % change vs. non-deuterated material
Description: as §1

C=CCN(CC=C)CCc1c[nH]c2ccccc12
RLM, metabolized or not (R / NR) ([1]; RLM): R

C=CCNCCc1c[nH]c2ccccc12
RLM, metabolized or not (R / NR) ([1]; RLM): R

[2H]C([2H])([2H])C([2H])([2H])NC([2H])([2H])C([2H])([2H])c1c[nH]c2cccc(O)c12
RLM, % (half-life as % vs. the related nondeuterated compound) ([1]; RLM): [93] %

CCN(CC)CCc1c[nH]c2ccccc12
RLM, metabolized or not (R / NR) ([1]; RLM): R

[2H]C([2H])(c1c[nH]c2ccc(OC)cc12)C([2H])([2H])N(CC)CC
RLM, % (half-life as % vs. the related nondeuterated compound) ([1]; RLM): [95] %

CCN(CC)CCc1c[nH]c2ccc(OC)cc12
RLM, metabolized or not (R / NR) ([1]; RLM): R

CCN(CC)CCc1c[nH]c2ccc(O)cc12
RLM, metabolized or not (R / NR) ([1]; RLM): R

CCN(CC)CCc1c[nH]c2cccc(OC)c12
RLM, metabolized or not (R / NR) ([1]; RLM): R

[2H]c1ccc2[nH]c([2H])c(CCN([2H])CC)c2c1O
RLM, metabolized or not (R / NR) ([1]; RLM): R

[2H]C([2H])(NCC)C([2H])([2H])c1c[nH]c2ccccc12
MAO, % (half-life as % vs. the related nondeuterated compound) (hrMAO-A; MAO-A, values in square brackets are within 10% (assay's accuracy), no deuteration effect): 140%

[2H]C([2H])(NCC)C([2H])([2H])c1c[nH]c2cccc(O)c12
RLM, % (half-life as % vs. the related nondeuterated compound) ([1]; RLM): [94] %

CCNCCc1c[nH]c2cccc(O)c12
RLM, metabolized or not (R / NR) ([1]; RLM): R

[2H]C([2H])(c1c[nH]c2cccc(OC)c12)C([2H])([2H])N(C)C
RLM, % (half-life as % vs. the related nondeuterated compound) ([1]; RLM): 190%

[2H]C([2H])(NC)C([2H])([2H])c1c[nH]c2cccc(O)c12
RLM, % (half-life as % vs. the related nondeuterated compound) ([1]; RLM): 160%

CC(C)NCCc1c[nH]c2ccccc12
RLM, metabolized or not (R / NR) ([1]; RLM): R

CC(C)NCCc1c[nH]c2cccc(O)c12
RLM, metabolized or not (R / NR) ([1]; RLM): R

[2H]C([2H])(c1c[nH]c2cccc(O)c12)C([2H])([2H])N(C(C)C)C(C)C
RLM, % (half-life as % vs. the related nondeuterated compound) ([1]; RLM): [97] %

CC(C)N(CCc1c[nH]c2cccc(O)c12)C(C)C
RLM, metabolized or not (R / NR) ([1]; RLM): R

COc1cc(CCNCc2ccccc2OC)c(OC)cc1Cl [2C-C-NBOMe, 2-(4-Chloro-2,5-dimethoxyphenyl)-N-[(2-methoxyphenyl)methyl]ethan-1-amine]
orally active dose [2]: ≥ 25 µg

[2H]C([2H])(Cc1c[nH]c2ccc(OC)cc12)N(C)C [5-MeO-DMT-α,α-d2]
Deuterium kinetic isotope effect (% change) AUC [3]: 60% | Deuterium kinetic isotope effect (% change) T1/2 [3]: 30% | Deuterium kinetic isotope effect (% change) F [3]: 200% | Deuterium kinetic isotope effect (% change) BPR, 15 min [4]: 120% | Deuterium kinetic isotope effect (% change) BPR, 30 min [4]: 180%

CN(C)CCc1c[nH]c2ccccc12 [DMT, reference compound]
% Remaining of Initial 0 min (hrMAO-A; hrMAO-A, Table 3): 100% | Half-life (hrMAO-A; hrMAO-A, Table 3): 0.453 h | % Remaining of Initial 0 min ([1]; RLM, Table 2): 100% | % Remaining of Initial 20 min ([1]; RLM, 20 min, Table 2): 41.0%

[2H]C([2H])(Cc1c[nH]c2ccccc12)N(C)C [DMT-d2]
% Remaining of Initial 0 min (hrMAO-A; hrMAO-A, Table 3): 100% | % Remaining of Initial 60 min (hrMAO-A; hrMAO-A, 60 min, Table 3): 76.0% | Half-life (hrMAO-A; hrMAO-A, Table 3): > 2 h | % Remaining of Initial 0 min ([1]; RLM, Table 2): 100% | % Remaining of Initial 60 min ([1]; RLM, 60 min, Table 2): 32.0%

[2H]C([2H])(c1c[nH]c2ccccc12)C([2H])([2H])N(C)C [DMT-d4]
% Remaining of Initial 0 min (hrMAO-A; hrMAO-A, Table 3): 100% | Half-life (hrMAO-A; hrMAO-A, Table 3): > 2 h | % Remaining of Initial 0 min ([1]; RLM, Table 2): 100%

[2H]C([2H])([2H])N(C([2H])([2H])[2H])C([2H])([2H])C([2H])([2H])c1c[nH]c2ccccc12 [DMT-d10]
metabolism in the MAO-A enzymatic assay, in words (hrMAO-A): superiority | % Remaining of Initial 0 min (hrMAO-A; hrMAO-A, Table 3): 100% | % Remaining of Initial 0 min (hrMAO-A; hrMAO-A, Table 5 (d8 and d10 analogs)): 100.0% | % Remaining of Initial 5 min (hrMAO-A; hrMAO-A, 5 min, Table 5): 99.0% | Half-life (hrMAO-A; hrMAO-A, Table 3): > 2 h | Half-life (hrMAO-A; hrMAO-A, Table 5): > 2 h | % Remaining of Initial 0 min ([1]; RLM, Table 2): 100% | % Remaining of Initial 0 min ([1]; RLM, Table 4 (d8 and d10 analogs)): 100% | % Remaining of Initial 10 min ([1]; RLM, 10 min, Table 4): 56.0% | metabolic stability in RLM, in words [1]: Further enhancement of metabolic stability

[2H]c1[nH]c2c([2H])c([2H])c([2H])c([2H])c2c1C([2H])([2H])C([2H])([2H])N(C([2H])([2H])[2H])C([2H])([2H])[2H] [DMT-d15]
metabolic stability in RLM, in words [1]: no improvement in half-life

[2H]C([2H])(Cc1c[nH]c2cccc(O)c12)N(C)C [PI-α,α-d2]
Deuterium kinetic isotope effect (% change) AUC [3]: 75% | Deuterium kinetic isotope effect (% change) T1/2 [3]: 50% | Deuterium kinetic isotope effect (% change) F [3]: 45% | Deuterium kinetic isotope effect (% change) BPR, 15 min [4]: 100% | Deuterium kinetic isotope effect (% change) BPR, 30 min [4]: 150%

CCNCCc1c[nH]c2ccccc12 [reference compound]
MAO, metabolized or not (R / NR) (hrMAO-A; MAO-A): R | RLM, metabolized or not (R / NR) ([1]; RLM): R

CCN(C)CCc1c[nH]c2ccccc12 [reference compound]
MAO, metabolized or not (R / NR) (hrMAO-A; MAO-A): R | RLM, metabolized or not (R / NR) ([1]; RLM): R

CCN(C)CCc1c[nH]c2ccc(OC)cc12 [reference compound]
MAO, metabolized or not (R / NR) (hrMAO-A; MAO-A): R | RLM, metabolized or not (R / NR) ([1]; RLM): R

CCN(C)CCc1c[nH]c2ccc(O)cc12 [reference compound]
MAO, metabolized or not (R / NR) (hrMAO-A; MAO-A): R | RLM, metabolized or not (R / NR) ([1]; RLM): R

CCN(C)CCc1c[nH]c2cccc(OC)c12 [reference compound]
MAO, metabolized or not (R / NR) (hrMAO-A; MAO-A): R | RLM, metabolized or not (R / NR) ([1]; RLM): R

COc1ccc2[nH]cc(CCN(C)C)c2c1 [reference compound]
MAO, metabolized or not (R / NR) (hrMAO-A; MAO-A): R | RLM, metabolized or not (R / NR) ([1]; RLM): R

CN(C)CCc1c[nH]c2ccc(O)cc12 [reference compound]
MAO, metabolized or not (R / NR) (hrMAO-A; MAO-A): R | RLM, metabolized or not (R / NR) ([1]; RLM): R

COc1cccc2[nH]cc(CCN(C)C)c12 [reference compound]
MAO, metabolized or not (R / NR) (hrMAO-A; MAO-A): R | RLM, metabolized or not (R / NR) ([1]; RLM): R

CNCCc1c[nH]c2ccccc12 [reference compound]
MAO, metabolized or not (R / NR) (hrMAO-A; MAO-A): R | RLM, metabolized or not (R / NR) ([1]; RLM): R

CNCCc1c[nH]c2cccc(O)c12 [reference compound]
MAO, metabolized or not (R / NR) (hrMAO-A; MAO-A): R | RLM, metabolized or not (R / NR) ([1]; RLM): R

From patent US20230126298A1, “DEUYERATED TRYPTAMINE DERIVATIVE FORMULATIONS AND METHODS OF USE” (priority 2020, published 2023)
